The text below walks through data of patent US8586591B2, “Aminopyrazine derivative and medicine” (Nippon Shinyaku Co., Ltd., priority 2009, dated 2013).

Counter-ions that a name gives are not always drawn.

The target in assay [1] is T1, JAK2 tyrosine kinase (Homo sapiens, UniProt O60674).
T1 construct: purchased Carnabioscience Co
Briefly: Test 1: inhibitory activity to JAK2 tyrosine kinase (ELISA). In kind it is biochemical. The settings on record: 25 μM ATP in substrate solution, 30° C. for 1 hour, n=2. The method, then:
Test 1: Test for inhibitory activity to JAK2 and JAK3 tyrosine kinase 1. Preparation of Test Material
The test material was dissolved in dimethylsulfoxide (DMSO) to be 10 mM, and further diluted with DMSO to be 100-fold concentrations for measurement (1000, 300, 100, 30, 10, 3, 1, 0.3, 0.1, 0.03, 0.01 μM). In addition, solutions diluted with an assay buffer up to 20 times were used as solutions of the test material. As a negative control, a solution of DMSO diluted 20 times with an assay buffer was used. As the assay buffer, 15 mM Tris-Cl (pH 7.5), 0.01 v/v % Tween-20, and 1 mM dithiothreitol were used.
2. Measurement of the Activities of JAK2 and JAK3 Tyrosine Kinases
The activity was determined by ELISA. The solution of the test material (10 μl each; n=2) was placed in a streptavidine-coated 96 well plate (DELFIA Strip Plate 8×12 wells; Perkin Elmer), to which 20 μl each of substrate solution (625 nM biotin-labeled peptide substrate, 25 μM ATP, 25 mM MgCl2, 15 mM Tris-Cl (pH 7.5), 0.01 v/v % Tween-20, and 1 mM dithiothreitol), was added and stirred. Finally, 20 μl each of JAK2 tyrosine kinase (Carnabioscience Co.) (diluted to 0.75 nM with assay buffer) or JAK3 tyrosine kinase (Carnabioscience Co.) (diluted to 0.75 nM with assay buffer) was added, stirred and allowed to stand at 30° C. for 1 hour. The plate was washed 4 times with a washing buffer (50 mM Tris-Cl, pH 7.5, 150 mM NaCl, 0.02 v/v % Tween-20), and then a blocking buffer (0.1% Bovine Serum Albumin, 50 mM Tris-Cl, pH 7.5, 150 mM NaCl, 0.02 v/v % Tween-20)(150 μl each) was added for blocking at 30° C. for 30 minutes. Blocking buffer was removed, and there was added 100 μl each of horse radish peroxidase-labeled anti-phosphorylated tyrosin kinase antibody (BD Bioscience Co.) (diluted 10,000 times with blocking buffer). The plate was incubated at 30° C. for 30 minutes and then washed 4 times with a washing buffer, and 100 μl each of 3,3′,5,5′-tetramethylbenzidine (Sigma-Aldrich Co.) was added to develop color for 10 minutes. 0.1 M sulfuric acid (100 μl each) was added to stop the reaction. The absorbance was measured by means of a micro-plate reader (BIO-RAD; Model 3550) at 450 nm.
3. Analysis of the Results of the Measurement
The measured absorbance was subjected to a non-linear regression analysis by means of a SAS system (SAS Institute Inc.), and the concentration (IC50) of the test material which inhibited 50% of the activity of each tyrosine kinase was estimated.
Background: An ELISA detects its analyte on a solid surface through an enzyme-linked reagent.

Assay [2] has as its target T2, JAK3 tyrosine kinase (Homo sapiens, UniProt P52333).
T2 construct: purchased Carnabioscience Co
T2 sequence (P52333 1-1124): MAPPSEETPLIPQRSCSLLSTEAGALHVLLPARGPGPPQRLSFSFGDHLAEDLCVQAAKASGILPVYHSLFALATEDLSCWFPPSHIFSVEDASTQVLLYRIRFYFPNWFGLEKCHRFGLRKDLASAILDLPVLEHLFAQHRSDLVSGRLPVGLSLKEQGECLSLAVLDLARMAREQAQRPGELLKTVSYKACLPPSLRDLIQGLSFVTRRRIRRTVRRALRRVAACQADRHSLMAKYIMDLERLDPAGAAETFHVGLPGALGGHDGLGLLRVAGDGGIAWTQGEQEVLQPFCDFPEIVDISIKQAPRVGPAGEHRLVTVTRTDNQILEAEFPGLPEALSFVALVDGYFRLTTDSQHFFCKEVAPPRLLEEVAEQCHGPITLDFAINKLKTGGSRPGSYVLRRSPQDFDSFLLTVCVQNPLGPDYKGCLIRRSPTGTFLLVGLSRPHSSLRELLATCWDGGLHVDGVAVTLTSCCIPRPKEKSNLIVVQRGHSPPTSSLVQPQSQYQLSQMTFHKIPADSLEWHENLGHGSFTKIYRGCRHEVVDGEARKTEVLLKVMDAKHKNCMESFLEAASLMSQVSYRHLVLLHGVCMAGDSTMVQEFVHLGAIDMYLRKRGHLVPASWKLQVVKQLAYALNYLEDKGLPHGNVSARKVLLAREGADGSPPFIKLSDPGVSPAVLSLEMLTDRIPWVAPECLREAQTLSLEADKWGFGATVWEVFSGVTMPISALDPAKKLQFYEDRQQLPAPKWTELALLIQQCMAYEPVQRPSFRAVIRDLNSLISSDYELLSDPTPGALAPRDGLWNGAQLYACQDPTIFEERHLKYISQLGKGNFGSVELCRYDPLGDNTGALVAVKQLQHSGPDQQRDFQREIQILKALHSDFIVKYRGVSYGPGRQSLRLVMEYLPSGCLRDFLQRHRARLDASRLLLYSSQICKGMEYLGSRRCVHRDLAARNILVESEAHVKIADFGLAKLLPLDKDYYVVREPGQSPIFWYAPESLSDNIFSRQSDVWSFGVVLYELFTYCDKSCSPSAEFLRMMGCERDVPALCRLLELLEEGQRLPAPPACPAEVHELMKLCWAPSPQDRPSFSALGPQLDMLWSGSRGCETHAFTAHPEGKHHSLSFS
Nature of the assay: Test 1: inhibitory activity to JAK3 tyrosine kinase (ELISA). The format is biochemical. The settings on record: 25 μM ATP in substrate solution, 30° C. for 1 hour, n=2. A digest of the protocol: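 ELISA of JAK3 kinase activity with absorbance read at 450 nm. Compounds were tested from DMSO dilution series at 100-fold the measurement concentrations (1000–0.01 μM), diluted up to 20 times in assay buffer, against a DMSO negative control. IC50 was estimated by non-linear regression of absorbance.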

T1 sequence (O60674 whole entry): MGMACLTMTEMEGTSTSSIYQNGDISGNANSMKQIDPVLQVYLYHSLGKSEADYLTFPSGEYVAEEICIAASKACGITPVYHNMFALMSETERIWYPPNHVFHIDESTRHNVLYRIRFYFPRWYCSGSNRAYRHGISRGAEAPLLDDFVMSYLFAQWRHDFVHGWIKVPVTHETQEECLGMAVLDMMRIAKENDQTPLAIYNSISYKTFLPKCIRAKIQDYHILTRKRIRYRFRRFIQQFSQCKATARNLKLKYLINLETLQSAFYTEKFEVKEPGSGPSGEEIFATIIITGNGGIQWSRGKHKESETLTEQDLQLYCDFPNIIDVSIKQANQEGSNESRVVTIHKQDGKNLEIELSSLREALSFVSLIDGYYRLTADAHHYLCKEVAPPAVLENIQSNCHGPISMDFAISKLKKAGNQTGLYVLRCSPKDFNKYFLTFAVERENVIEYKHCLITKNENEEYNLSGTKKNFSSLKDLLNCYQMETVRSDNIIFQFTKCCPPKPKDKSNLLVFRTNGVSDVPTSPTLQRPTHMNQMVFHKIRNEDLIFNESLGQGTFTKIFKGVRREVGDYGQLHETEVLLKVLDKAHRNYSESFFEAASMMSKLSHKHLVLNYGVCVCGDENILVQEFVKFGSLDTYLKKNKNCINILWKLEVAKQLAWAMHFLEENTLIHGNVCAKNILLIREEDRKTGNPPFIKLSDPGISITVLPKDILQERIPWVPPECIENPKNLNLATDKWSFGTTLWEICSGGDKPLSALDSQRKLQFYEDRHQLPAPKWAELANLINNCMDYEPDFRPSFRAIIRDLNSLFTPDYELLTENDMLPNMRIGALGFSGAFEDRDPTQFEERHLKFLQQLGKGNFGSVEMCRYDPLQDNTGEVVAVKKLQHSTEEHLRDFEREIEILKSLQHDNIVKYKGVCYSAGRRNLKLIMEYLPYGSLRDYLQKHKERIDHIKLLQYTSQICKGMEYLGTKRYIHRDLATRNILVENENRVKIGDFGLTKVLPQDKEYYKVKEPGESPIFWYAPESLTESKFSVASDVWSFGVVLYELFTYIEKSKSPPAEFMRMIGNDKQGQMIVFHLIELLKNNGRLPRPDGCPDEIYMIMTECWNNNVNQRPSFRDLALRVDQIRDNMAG

For the compound `C[C@H](Nc1nc(Nc2cnccn2)cc(N2CCCC2=O)n1)c1ccc(F)cc1` [Example 16, (S)-1-{2-[1-(4-Fluorophenyl)ethylamino]-6-(pyrazin-2-ylamino)pyrimidin-4-yl}pyrrolidin-2-one], the IC50 in assay [1] is 8 nM; in assay [2], 630 nM.

With `C[C@H](Nc1nc(Nc2cnccn2)cc(N2CC(F)(F)C2)n1)c1ccc(F)cc1` [Example 3, (S)-6-(3,3-Difluoroazetidin-1-yl)-N^2-[1-(4-fluorophenyl)ethyl]-N^4-(pyrazin-2-yl)pyrimidine-2,4-diamine hydrochloride], the IC50 in assay [1] turned out to be 1.2 nM; in assay [2], 130 nM.

Regarding `C[C@H](Nc1nc(Nc2cnccn2)cc(N[C@H](CO)c2ccccc2)n1)c1ccc(F)cc1` [Example 86, (S)-2-{2-[(S)-1-(4-Fluorophenyl)ethylamino]-6-(pyrazin-2-ylamino)pyrimidin-4-ylamino}-2-phenylethanol], the IC50 in assay [1] amounted to 2.4 nM; in assay [2], 87 nM.

Regarding `C[C@H](Nc1cc(-c2ccoc2)cc(Nc2cnccn2)n1)c1ccc(F)cc1` [Example 123, (S)—N^2-[1-(4-Fluorophenyl)ethyl]-4-(furan-3-yl)-N^6-(pyrazin-2-yl)pyridine-2,6-diamine], the IC50 in assay [1] was determined as 5.4 nM; in assay [2], 330 nM.

`C[C@H](Nc1nc(Nc2cnccn2)cc(OCCO)n1)c1ccc(F)cc1` [Example 95, (S)-2-{2-[1-(4-Fluorophenyl)ethylamino]-6-(pyrazin-2-ylamino)pyrimidin-4-yloxy}ethanol hydrochloride]: the figures for the IC50 in assay [1] and in assay [2] were 2.2 nM and 110 nM, respectively.

As to `C[C@H](Nc1nc(Nc2cnccn2)cc(-c2cccnc2)n1)c1ccc(F)cc1` [Example 32, (S)—N^2-[1-(4-Fluorophenyl)ethyl]-N^4-(pyrazin-2-yl)-6-(pyridin-3-yl)pyrimidine-2,4-diamine ½ maleate], the IC50 in assay [1] was 0.5 nM; in assay [2] it was 68 nM.

Consider `CC(C)NC(=O)C1CN(c2cc(Nc3cnccn3)nc(N[C@@H](C)c3ccc(F)cc3)n2)C1` [Example 191, (S)-1-{2-[1-(4-Fluorophenyl)ethylamino]-6-(pyrazin-2-ylamino)pyrimidin-4-yl}-N-isopropylazetidine-3-carboxamide], for which the IC50 turned out to be 1.4 nM in assay [1] and 31 nM in assay [2].

In the case of `CC(=O)NC1CN(c2cc(Nc3cnccn3)nc(N[C@@H](C)c3ccc(F)cc3)n2)C1` [Example 42, (S)—N-(1-{2-[1-(4-Fluorophenyl)ethylamino]-6-(pyrazin-2-ylamino)pyrimidin-4-yl}azetidin-3-yl)acetamide], the figures for the IC50 in assay [1] and in assay [2] were 1 nM and 66 nM, respectively.

`C[C@H](Nc1cc(C(=O)NCCCO)cc(Nc2cnccn2)n1)c1ccc(F)cc1` [Example 172, (S)-2-[1-(4-Fluorophenyl)ethylamino]-N-(3-hydroxypropyl)-6-(pyrazin-2-ylamino)isonicotinamide]: the IC50 in assay [1] was 0.85 nM; in assay [2] it was 150 nM.

With `COC1(C(C)C)CN(c2cc(Nc3cnccn3)nc(N[C@@H](C)c3ccc(F)cc3)c2)C1` [Example 212, (S)—N^2-[1-(4-Fluorophenyl)ethyl]-4-(3-isopropyl-3-methoxyazetidin-1-yl)-N^6-(pyrazin-2-yl)pyridine-2,6-diamine hydrochloride], the concentration for half-maximal inhibition (IC50) in assay [1] worked out at 15 nM; in assay [2] it was 160 nM.

For the compound `C[C@H](Nc1cc(-c2cnco2)cc(Nc2cnccn2)n1)c1ccc(F)cc1` [Example 8, (S)—N^2-[1-(4-Fluorophenyl)ethyl]-4-(oxazol-5-yl)-N^6-(pyrazin-2-yl)pyridine-2,6-diamine], the IC50 is 1.1 nM in assay [1] and 82 nM in assay [2].

Turning to `CC(C)[C@@H](CO)Nc1cc(Nc2cnccn2)nc(N[C@@H](C)c2ccc(F)cc2)n1` [Example 99, (S)-2-{2-[(S)-1-(4-Fluorophenyl)ethylamino]-6-(pyrazin-2-ylamino)pyrimidin-4-ylamino}-3-methylbutan-1-ol hydrochloride], the IC50 in assay [1] came out at 2.4 nM; in assay [2], 200 nM.

Consider `C[C@H](Nc1nc(Nc2cnccn2)cc(N2CCC2)n1)c1ccc(F)cc1` [Example 43, (S)-6-(Azetidin-1-yl)-N^2-[1-(4-fluorophenyl)ethyl]-N^4-(pyrazin-2-yl)pyrimidine-2,4-diamine], for which the IC50 is 1.2 nM in assay [1] and 130 nM in assay [2].

Regarding `COCc1cc(Nc2cnccn2)nc(N[C@@H](C)c2ccc(F)cc2)c1` [Example 175, (S)—N^2-[1-(4-Fluorophenyl)ethyl]-4-(methoxymethyl)-N^6-(pyrazin-2-yl)pyridine-2,6-diamine], the IC50 in assay [1] amounted to 4.9 nM; in assay [2], 400 nM.

Turning to `C[C@H](Nc1cc(NS(C)(=O)=O)cc(Nc2cnccn2)n1)c1ccc(F)cc1` [Example 209, (S)—N-{2-[1-(4-Fluorophenyl)ethylamino]-6-(pyrazin-2-ylamino)pyridin-4-yl}methanesulfonamide hydrochloride], the IC50 in assay [1] was 7.1 nM; in assay [2] it was 440 nM.

In the case of `C[C@H](Nc1nc(Nc2cnccn2)cc(-c2ccc(C(N)=O)nc2)n1)c1ccc(F)cc1` [Example 57, (S)-5-{2-[1-(4-Fluorophenyl)ethylamino]-6-(pyrazin-2-ylamino)pyrimidin-4-yl}picolinamide], the values for the IC50 in assay [1] and in assay [2] were 1.3 nM and 82 nM, respectively.

`CNC(=O)c1ccc(Nc2cnccn2)nc1N[C@@H](C)c1ccc(F)cc1` [Example 185, (S)-2-[1-(4-Fluorophenyl)ethylamino]-N-methyl-6-(pyrazin-2-ylamino)nicotinamide]: the IC50 came to 4.2 nM in assay [1] and 380 nM in assay [2].

Consider `C[C@H](Nc1nc(Nc2cnccn2)cc(-c2cccnc2)n1)c1ccc(F)cc1` [Example 13, (S)—N^2-[1-(4-Fluorophenyl)ethyl]-N^4-(pyrazin-2-yl)-6-(pyridin-3-yl)pyrimidine-2,4-diamine], for which the IC50 in assay [1] is 1.3 nM; in assay [2], 71 nM.

As to `C[C@H](Nc1nc(Nc2cnccn2)cc(N[C@H](CO)Cc2ccccc2)n1)c1ccc(F)cc1` [Example 87, (S)-2-{2-[(S)-1-(4-Fluorophenyl)ethylamino]-6-(pyrazin-2-ylamino)pyrimidin-4-ylamino}-3-phenylpropan-1-ol], the IC50 in assay [1] stood at 14 nM; in assay [2], 450 nM.

What is called IC50 is the concentration needed to halve the response being measured. High values mean weaker potency, low ones greater potency.
